Measurements as given in PMC8115619, “Generation of a chemical genetic model for JAK3” (Scientific Reports, 2021).
“Also recorded” adds a separate entry of the source.

Assays:
[1] = target: ABL (Homo sapiens, UniProt P00519); assay: Selectivity screen ABL; type: biochemical; details: 1 µM inhibitor, mean
Experimental: (§1) For the in vitro kinase assay, JAK3 (5–20 mU diluted in 50 mM Tris pH 7.5, 0.1 mM EGTA, 0.05% β-mercaptoethanol, 1 mg/ml BSA) was assayed against PDKtide ([…]) in a final volume of 25.5 µl containing 50 mM Tris pH 7.5, 0.1 mM EGTA, 0.05% β-mercaptoethanol, 100 µM substrate peptide, 10 mM magnesium acetate and 0.02 mM [33P-γ-ATP] (50–1000 cpm/pmole) and incubated for 30 min at room temperature. Assays were started by the addition of the ATP and stopped by addition of 5 µl of 0.5 M (3%) orthophosphoric acid and then harvested onto P81 Unifilter plates with a wash buffer of 50 mM orthophosphoric acid. To determine the Km for ATP, assays were run using 1, 5, 10, 20, 50, 100, 200, 400, 500 μM ATP and Km derived by non-linear regression fitting to the Michaelis–Menten equation v = Vmax[S]/(Km + [S]). IC50 values for inhibitors via non-linear regression using a parameter model: Y = Bottom + (Top–Bottom)/(1 + (IC50/X)^HillSlope). Non-linear regression was carried out in Prism (version 8). In vitro selectivity screen was carried out as described previously.

[2] = target: Aurora A (Homo sapiens, UniProt O14965); assay: Selectivity screen Aurora A; type: biochemical; details: 1 µM inhibitor, mean
Aurora A, sequence (O14965 whole entry): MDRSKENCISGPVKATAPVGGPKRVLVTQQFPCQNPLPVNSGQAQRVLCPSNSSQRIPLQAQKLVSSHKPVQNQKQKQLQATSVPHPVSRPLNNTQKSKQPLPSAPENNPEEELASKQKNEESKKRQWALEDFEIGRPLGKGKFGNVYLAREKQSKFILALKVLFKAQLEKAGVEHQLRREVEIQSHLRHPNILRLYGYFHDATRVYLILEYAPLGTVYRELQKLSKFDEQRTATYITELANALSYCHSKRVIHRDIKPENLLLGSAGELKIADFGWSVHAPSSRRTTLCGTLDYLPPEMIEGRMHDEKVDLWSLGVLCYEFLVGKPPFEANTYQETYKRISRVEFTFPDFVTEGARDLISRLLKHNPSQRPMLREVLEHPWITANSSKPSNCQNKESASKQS

[3] = target: Aurora B (Homo sapiens, UniProt Q96GD4); assay: Selectivity screen Aurora B; type: biochemical; details: 1 µM inhibitor, mean
Aurora B, sequence (Q96GD4 whole entry): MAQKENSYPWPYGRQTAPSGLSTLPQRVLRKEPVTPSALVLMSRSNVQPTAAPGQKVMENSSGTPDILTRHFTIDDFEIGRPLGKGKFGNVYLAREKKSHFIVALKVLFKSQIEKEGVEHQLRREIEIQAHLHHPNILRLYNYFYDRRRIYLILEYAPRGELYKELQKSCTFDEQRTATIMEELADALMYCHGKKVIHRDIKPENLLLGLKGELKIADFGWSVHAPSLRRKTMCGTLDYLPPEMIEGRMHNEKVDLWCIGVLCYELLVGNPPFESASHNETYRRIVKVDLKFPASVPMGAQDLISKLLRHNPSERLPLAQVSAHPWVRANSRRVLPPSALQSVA

[4] = target: BTK (Homo sapiens, UniProt Q06187); assay: Selectivity screen BTK; type: biochemical; details: 1 µM inhibitor, mean
[5] = target: CHK1 (Homo sapiens, UniProt O14757); assay: Selectivity screen CHK1; type: biochemical; details: 1 µM inhibitor, mean
CHK1, sequence (O14757 whole entry): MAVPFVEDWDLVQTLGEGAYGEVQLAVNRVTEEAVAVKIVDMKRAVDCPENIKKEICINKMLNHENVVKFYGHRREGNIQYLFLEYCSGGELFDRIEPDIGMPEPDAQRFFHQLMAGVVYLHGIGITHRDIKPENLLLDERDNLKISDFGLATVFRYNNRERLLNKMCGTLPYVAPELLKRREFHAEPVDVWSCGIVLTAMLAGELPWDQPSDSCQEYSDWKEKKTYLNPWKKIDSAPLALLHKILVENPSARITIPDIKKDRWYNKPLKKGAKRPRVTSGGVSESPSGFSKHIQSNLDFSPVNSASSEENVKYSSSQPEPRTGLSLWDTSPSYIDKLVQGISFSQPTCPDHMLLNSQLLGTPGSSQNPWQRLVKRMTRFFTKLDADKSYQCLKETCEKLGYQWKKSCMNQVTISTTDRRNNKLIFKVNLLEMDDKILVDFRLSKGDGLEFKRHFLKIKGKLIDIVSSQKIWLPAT
Experimental: as §1

[6] = target: DAPK1 (Homo sapiens, UniProt P53355); assay: Selectivity screen DAPK1; type: biochemical; details: 1 µM inhibitor, mean
Experimental: as §1

[7] = target: EF2K (Homo sapiens, UniProt O00418); assay: Selectivity screen EF2K; type: biochemical; details: 1 µM inhibitor, mean
Experimental: as §1

[8] = target: EPH-B2 (Homo sapiens, UniProt P29323); assay: Selectivity screen EPH-B2; type: biochemical; details: 1 µM inhibitor, mean
Experimental: as §1

[9] = target: ERK2 (Homo sapiens, UniProt P28482); assay: Selectivity screen ERK2; type: biochemical; details: 1 µM inhibitor, mean
ERK2, sequence (P28482 whole entry): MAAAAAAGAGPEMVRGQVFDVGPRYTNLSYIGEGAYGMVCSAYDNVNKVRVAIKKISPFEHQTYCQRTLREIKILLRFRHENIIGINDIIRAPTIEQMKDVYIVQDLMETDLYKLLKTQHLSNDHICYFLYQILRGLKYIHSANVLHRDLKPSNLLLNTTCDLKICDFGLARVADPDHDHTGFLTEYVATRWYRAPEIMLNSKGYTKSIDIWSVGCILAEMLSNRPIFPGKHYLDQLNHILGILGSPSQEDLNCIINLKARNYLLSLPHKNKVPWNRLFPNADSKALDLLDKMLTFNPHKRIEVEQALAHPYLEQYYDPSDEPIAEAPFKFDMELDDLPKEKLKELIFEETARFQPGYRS
Experimental: as §1

[10] = target: GSK3b (Homo sapiens, UniProt P49841); assay: Selectivity screen GSK3b; type: biochemical; details: 1 µM inhibitor, mean
Experimental: as §1

[11] = target: HER4 (Homo sapiens, UniProt Q15303); assay: Selectivity screen HER4; type: biochemical; details: 1 µM inhibitor, mean
HER4, sequence (Q15303 26-1308): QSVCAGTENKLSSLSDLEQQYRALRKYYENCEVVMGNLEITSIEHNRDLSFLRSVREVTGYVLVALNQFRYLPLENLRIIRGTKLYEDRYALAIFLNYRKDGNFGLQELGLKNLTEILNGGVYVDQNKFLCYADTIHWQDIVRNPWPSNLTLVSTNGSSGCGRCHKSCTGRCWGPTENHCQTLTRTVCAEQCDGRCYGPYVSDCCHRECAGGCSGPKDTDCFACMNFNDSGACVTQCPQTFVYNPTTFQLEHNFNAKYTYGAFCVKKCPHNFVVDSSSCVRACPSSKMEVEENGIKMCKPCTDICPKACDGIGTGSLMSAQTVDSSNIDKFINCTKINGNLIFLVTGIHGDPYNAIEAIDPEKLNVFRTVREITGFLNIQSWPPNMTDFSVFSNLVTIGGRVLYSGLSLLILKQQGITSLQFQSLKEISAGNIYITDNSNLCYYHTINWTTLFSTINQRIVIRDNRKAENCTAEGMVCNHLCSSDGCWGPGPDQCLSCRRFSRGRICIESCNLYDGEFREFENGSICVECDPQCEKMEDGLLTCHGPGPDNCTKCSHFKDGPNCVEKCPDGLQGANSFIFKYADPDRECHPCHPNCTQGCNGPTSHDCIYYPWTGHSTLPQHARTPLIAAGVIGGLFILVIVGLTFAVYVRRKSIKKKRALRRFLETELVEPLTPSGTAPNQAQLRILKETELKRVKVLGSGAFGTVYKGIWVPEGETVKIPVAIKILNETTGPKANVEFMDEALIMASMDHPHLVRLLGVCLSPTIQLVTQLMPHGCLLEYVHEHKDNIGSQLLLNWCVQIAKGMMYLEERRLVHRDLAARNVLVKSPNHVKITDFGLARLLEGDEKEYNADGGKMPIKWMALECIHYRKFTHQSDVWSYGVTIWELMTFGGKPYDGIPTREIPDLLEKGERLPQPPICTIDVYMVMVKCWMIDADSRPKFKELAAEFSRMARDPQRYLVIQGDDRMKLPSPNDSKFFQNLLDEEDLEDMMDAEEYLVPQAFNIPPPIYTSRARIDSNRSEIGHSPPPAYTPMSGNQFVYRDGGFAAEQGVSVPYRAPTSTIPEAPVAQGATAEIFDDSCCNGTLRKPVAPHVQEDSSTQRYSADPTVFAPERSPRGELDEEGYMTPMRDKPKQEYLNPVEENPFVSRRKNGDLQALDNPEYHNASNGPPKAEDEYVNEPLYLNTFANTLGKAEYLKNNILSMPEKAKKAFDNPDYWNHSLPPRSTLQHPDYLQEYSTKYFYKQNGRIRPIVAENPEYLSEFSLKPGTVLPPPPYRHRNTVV
Experimental: as §1

[12] = target: IKKe (Homo sapiens, UniProt Q14164); assay: Selectivity screen IKKe; type: biochemical; details: 1 µM inhibitor, mean
IKKe, sequence (Q14164 whole entry): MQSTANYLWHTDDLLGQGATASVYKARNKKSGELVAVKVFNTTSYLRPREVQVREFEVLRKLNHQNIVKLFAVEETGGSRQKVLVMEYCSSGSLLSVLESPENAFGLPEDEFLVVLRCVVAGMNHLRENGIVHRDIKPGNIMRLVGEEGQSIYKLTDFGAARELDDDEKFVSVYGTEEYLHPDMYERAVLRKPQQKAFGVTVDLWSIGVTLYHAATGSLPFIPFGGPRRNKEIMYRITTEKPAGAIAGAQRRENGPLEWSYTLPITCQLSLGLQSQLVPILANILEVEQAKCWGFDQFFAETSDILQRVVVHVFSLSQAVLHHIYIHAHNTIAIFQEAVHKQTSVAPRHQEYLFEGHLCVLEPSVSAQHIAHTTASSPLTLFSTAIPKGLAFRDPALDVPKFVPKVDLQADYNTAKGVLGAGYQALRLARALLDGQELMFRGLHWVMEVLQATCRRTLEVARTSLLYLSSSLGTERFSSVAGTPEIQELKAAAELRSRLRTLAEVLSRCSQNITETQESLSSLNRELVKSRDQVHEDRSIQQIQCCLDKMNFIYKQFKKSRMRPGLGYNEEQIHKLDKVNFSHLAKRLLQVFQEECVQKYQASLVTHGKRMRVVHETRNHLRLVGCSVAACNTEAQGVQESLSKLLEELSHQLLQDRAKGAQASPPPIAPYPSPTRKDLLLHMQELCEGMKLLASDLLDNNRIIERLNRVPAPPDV
Experimental: as §1

[13] = target: MAP4K3 (Homo sapiens, UniProt Q8IVH8); assay: Selectivity screen MAP4K3; type: biochemical; details: 1 µM inhibitor, mean
Experimental: as §1

[14] = target: MAPKAP-K2 (Homo sapiens, UniProt P49137); assay: Selectivity screen MAPKAP-K2; type: biochemical; details: 1 µM inhibitor, mean
Experimental: as §1

[15] = target: MKK1 (Homo sapiens, UniProt Q02750); assay: Selectivity screen MKK1; type: biochemical; details: 1 µM inhibitor, mean
Experimental: as §1

[16] = target: MNK1 (Homo sapiens, UniProt Q9BUB5); assay: Selectivity screen MNK1; type: biochemical; details: 1 µM inhibitor, mean
Experimental: as §1

[17] = target: NEK6 (Homo sapiens, UniProt Q9HC98); assay: Selectivity screen NEK6; type: biochemical; details: 1 µM inhibitor, mean
Experimental: as §1

[18] = target: PAK2 (Homo sapiens, UniProt Q13177); assay: Selectivity screen PAK2; type: biochemical; details: 1 µM inhibitor, mean
Experimental: as §1

[19] = target: Src (Homo sapiens, UniProt P12931); assay: Selectivity screen Src; type: biochemical; details: 1 µM inhibitor, mean
Src, sequence (P12931 whole entry): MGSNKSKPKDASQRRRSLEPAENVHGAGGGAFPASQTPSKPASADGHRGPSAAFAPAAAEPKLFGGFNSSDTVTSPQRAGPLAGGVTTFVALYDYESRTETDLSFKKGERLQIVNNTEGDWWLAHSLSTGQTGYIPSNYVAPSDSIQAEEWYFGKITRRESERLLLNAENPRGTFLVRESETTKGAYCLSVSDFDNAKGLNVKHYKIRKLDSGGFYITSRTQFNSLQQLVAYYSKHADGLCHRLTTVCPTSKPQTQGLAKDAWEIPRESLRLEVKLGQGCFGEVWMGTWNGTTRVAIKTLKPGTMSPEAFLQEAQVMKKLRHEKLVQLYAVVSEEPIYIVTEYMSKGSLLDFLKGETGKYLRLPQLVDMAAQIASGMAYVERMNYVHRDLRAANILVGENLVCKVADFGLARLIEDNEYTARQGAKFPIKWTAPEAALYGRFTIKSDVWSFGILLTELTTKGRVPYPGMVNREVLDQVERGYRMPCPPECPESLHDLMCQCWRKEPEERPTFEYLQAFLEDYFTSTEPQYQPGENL
Experimental: as §1

[20] = target: TESK1 (Homo sapiens, UniProt Q15569); assay: Selectivity screen TESK1; type: biochemical; details: 1 µM inhibitor, mean
TESK1, sequence (Q15569 whole entry): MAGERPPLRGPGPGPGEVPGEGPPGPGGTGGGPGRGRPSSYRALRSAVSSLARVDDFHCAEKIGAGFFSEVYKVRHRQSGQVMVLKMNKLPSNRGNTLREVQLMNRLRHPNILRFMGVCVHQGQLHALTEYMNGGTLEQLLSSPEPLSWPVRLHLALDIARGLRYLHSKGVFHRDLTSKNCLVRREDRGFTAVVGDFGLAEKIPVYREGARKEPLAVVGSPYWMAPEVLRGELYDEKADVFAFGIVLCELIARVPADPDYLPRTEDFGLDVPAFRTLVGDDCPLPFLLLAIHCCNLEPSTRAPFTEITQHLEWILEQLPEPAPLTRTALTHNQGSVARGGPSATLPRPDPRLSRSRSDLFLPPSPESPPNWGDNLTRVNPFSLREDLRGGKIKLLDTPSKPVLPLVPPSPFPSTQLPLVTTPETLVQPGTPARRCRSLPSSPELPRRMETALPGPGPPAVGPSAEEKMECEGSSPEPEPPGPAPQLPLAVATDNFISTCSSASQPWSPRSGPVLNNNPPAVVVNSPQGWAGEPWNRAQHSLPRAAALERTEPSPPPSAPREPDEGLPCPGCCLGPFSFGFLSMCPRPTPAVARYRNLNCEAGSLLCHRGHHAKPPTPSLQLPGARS
Experimental: as §1

[21] = target: TIE2 (Homo sapiens, UniProt Q02763); assay: Selectivity screen TIE2; type: biochemical; details: 1 µM inhibitor, mean
Experimental: as §1

[22] = test system: GM-CSF induced STAT5 phosphorylation in BMDMs; assay: GM-CSF induced STAT5 phosphorylation in macrophages; type: cell-based, mouse; details: wild type BMDMs, 10 μM inhibitor 2 h, 10 ng/ml GM-CSF
Experimental: (§2) (A) BMDMs were isolated from wild type mice. Cells were incubated with the indicated inhibitors in μM for 2 h before stimulation with 10 ng/ml IL-4 for 30 min. The levels of phosphorylated STAT6 were then determined by immunoblotting. (B) As (A) except cells were stimulated 10 ng/ml GM-CSF and the levels of phosphorylated STAT5 determined. (C) As (A) except cells were stimulated 10 ng/ml IL-10 and the levels of phosphorylated STAT3 determined. (D) As (A) except cells were stimulated 10 ng/ml IFNβ and the levels of phosphorylated STAT1 determined. For A–D, levels of ERK1/2 were determined as a loading control.
Bone marrow derived macrophages (BMDMs) were cultured as described. Briefly, bone marrow was flushed in PBS from the femurs and tibias of mice. […]
(§3) Cells were lysed directly into SDS sample buffer and aliquots run on 10% polyacrylamide gels using standard methods. Proteins were transferred onto nitrocellulose membranes, and specific proteins were detected by immunoblotting. […] Bands were detected using Clarity ECL reagents from BioRad and imaged on a Licor Odyssey Fc system. Quantification was carried out using Licor Image Studio software. After correction for the ERK1/2 levels to account for loading differences, percentage inhibition was calculated relative to the IL-4 stimulated condition. IC50 values were calculated using the same methods as for the in vitro IC50 values.

[23] = test system: IL-10 induced STAT3 phosphorylation in BMDMs; assay: IL-10 induced STAT3 phosphorylation in macrophages; type: cell-based, mouse; details: wild type BMDMs, inhibitor 2 h, 10 ng/ml IL-10
Experimental: as §2
Bone marrow derived macrophages (BMDMs) were cultured as described. Briefly, bone marrow was flushed in PBS from the femurs and tibias of mice. Cells were cultured on bacterial grade plastic for 7 days at 37 °C, 5% CO2. Cells were then detached using Versene (Gibco), re-plated on tissue culture plastic in BMDM media (in DMEM supplemented with 10% heat inactivated FBS (Labtech), 2 mM L-glutamine, 100 U/ml penicillin G, 100 μg/ml streptomycin and 0.25 μg/ml amphotericin, 5 ng/ml M-CSF) and used within 48 h. Where indicated cells were stimulated with 10 ng/ml IL-4, 10 ng/ml GM-CSF, 10 ng/ml IL-10 or 10 ng/ml IFNβ. All cytokines were from PeproTech.
as §3, with “immunoblotting. Antibodies against tyrosine phosphorylated STATs were from Cell Signaling Technology (phospho-STAT1 #9167, phospho-STAT3 #9131, phospho-STAT5 #4322 and phospho-STAT6 #9361).” for “immunoblotting.”

## C=CC(=O)Nc1cccc(CNc2nc(Nc3ccc(N4CCN(C)CC4)cc3OC)ncc2Cl)c1 [TL6-144]
[1]
  activity remaining in the presence of the inhibitor: ABL: 87
[2]
  activity remaining in the presence of the inhibitor: Aurora A: 94
[3]
  activity remaining in the presence of the inhibitor: Aurora B: 81
[4]
  activity remaining in the presence of the inhibitor: BTK: 37
[5]
  activity remaining in the presence of the inhibitor: CHK1: 93
[6]
  activity remaining in the presence of the inhibitor: DAPK1: 94
[7]
  activity remaining in the presence of the inhibitor: EF2K: 95
[8]
  activity remaining in the presence of the inhibitor: EPH-B2: 96
[9]
  activity remaining in the presence of the inhibitor: ERK2: 106
[10]
  activity remaining in the presence of the inhibitor: GSK3b: 87
[11]
  activity remaining in the presence of the inhibitor: HER4: 9
[12]
  activity remaining in the presence of the inhibitor: IKKe: 100
[13]
  activity remaining in the presence of the inhibitor: MAP4K3: 83
[14]
  activity remaining in the presence of the inhibitor: MAPKAP-K2: 103
[15]
  activity remaining in the presence of the inhibitor: MKK1: 79
[16]
  activity remaining in the presence of the inhibitor: MNK1: 105
[17]
  activity remaining in the presence of the inhibitor: NEK6: 97
[18]
  activity remaining in the presence of the inhibitor: PAK2: 81
[19]
  activity remaining in the presence of the inhibitor: Src: 74
[20]
  activity remaining in the presence of the inhibitor: TESK1: 99
[21]
  activity remaining in the presence of the inhibitor: TIE2: 87

## C=CC(=O)N1C[C@H](Nc2ncnc3[nH]ccc23)CC[C@@H]1C [PF-06651600, 1-((2S,5R)-5-((7H-Pyrrolo[2,3-d]pyrimidin-4-yl)amino)-2-methylpiperidin-1-yl)prop-2-en-1-one, reference compound]
[22]
  inhibition of GM-CSF induced STAT5 phosphorylation: Neither TL8-52 or PF-06651600 inhibited; also recorded: did not block
[23]
  effect on IL-10 signaling (IL-10 induced STAT3 phosphorylation): did not block
[23]; listed as PF-0665160
  effect on IL-10 signaling (IL-10 induced STAT3 phosphorylation): no effect

## C=CC(=O)Nc1cccc(CNc2nc(Nc3ccc(N4CCOCC4)cc3)ncc2Cl)c1 [TL8-52]
[22]
  inhibition of GM-CSF induced STAT5 phosphorylation: Neither TL8-52 or PF-06651600 inhibited
[23]
  effect on IL-10 signaling (IL-10 induced STAT3 phosphorylation): no effect; also recorded: did not block
[1]
  activity remaining in the presence of the inhibitor: ABL: 89
[2]
  activity remaining in the presence of the inhibitor: Aurora A: 13
[3]
  activity remaining in the presence of the inhibitor: Aurora B: 13
[4]
  activity remaining in the presence of the inhibitor: BTK: 44
[5]
  activity remaining in the presence of the inhibitor: CHK1: 91
[6]
  activity remaining in the presence of the inhibitor: DAPK1: 100
[7]
  activity remaining in the presence of the inhibitor: EF2K: 105
[8]
  activity remaining in the presence of the inhibitor: EPH-B2: 81
[9]
  activity remaining in the presence of the inhibitor: ERK2: 97
[10]
  activity remaining in the presence of the inhibitor: GSK3b: 118
[11]
  activity remaining in the presence of the inhibitor: HER4: 31
[12]
  activity remaining in the presence of the inhibitor: IKKe: 34
[13]
  activity remaining in the presence of the inhibitor: MAP4K3: 55
[14]
  activity remaining in the presence of the inhibitor: MAPKAP-K2: 97
[15]
  activity remaining in the presence of the inhibitor: MKK1: 84
[16]
  activity remaining in the presence of the inhibitor: MNK1: 112
[17]
  activity remaining in the presence of the inhibitor: NEK6: 103
[18]
  activity remaining in the presence of the inhibitor: PAK2: 75
[19]
  activity remaining in the presence of the inhibitor: Src: 53
[20]
  activity remaining in the presence of the inhibitor: TESK1: 91
[21]
  activity remaining in the presence of the inhibitor: TIE2: 116
